Data: EPA's CvTdb concentration-time database

Assays:
Rat [1] = test: concentration in liver after dosing; conditions: oral
Rat [2] = test: concentration in brain after dosing; conditions: oral
Rat [3] = test: concentration in kidney after dosing; conditions: oral
Rat [4] = test: concentration in plasma after dosing

O=S(=O)([O-])C(F)(F)C(F)(F)C(F)(F)C(F)(F)C(F)(F)C(F)(F)C(F)(F)C(F)(F)F [Perfluorooctane Sulfonate]
dosed: Perfluorooctane Sulfonate
Conditions	concentration in brain, Rat [2] [ng/g]	concentration in kidney, Rat [3] [ng/g]	concentration in liver, Rat [1] [ng/g]
6 h, 2 mg/kg, Female, Harlan Sprague Dawley	–	4960	24800
6 h, 20 mg/kg, Female, F344	3650	112000	118000
6 h, 20 mg/kg, Male, Harlan Sprague Dawley	5430	85500	135000
24 h, 2 mg/kg, Female, Harlan Sprague Dawley	615	5860	24400
24 h, 20 mg/kg, Female, F344	11500	131000	127000
24 h, 20 mg/kg, Male, Harlan Sprague Dawley	9570	66800	148000
864 h, 2 mg/kg, Female, Harlan Sprague Dawley	–	1750	13200
864 h, 20 mg/kg, Female, F344	3420	53400	72900
864 h, 20 mg/kg, Male, Harlan Sprague Dawley	2750	21500	93900
1848 h, 2 mg/kg, Female, Harlan Sprague Dawley	–	923	5150
1848 h, 20 mg/kg, Female, F344	1270	21400	44900
1848 h, 20 mg/kg, Male, Harlan Sprague Dawley	1560	10500	51000
3360 h, 2 mg/kg, Female, Harlan Sprague Dawley	–	517	8200
3360 h, 20 mg/kg, Male, Harlan Sprague Dawley	672	2460	22900

concentration in plasma [ng/mL], Rat [4], dosed: Perfluorooctane Sulfonate, 2 mg/kg
Conditions	Female	Male
1 h, iv, F344	4190	–
1 h, iv, Harlan Sprague-Dawley	4680	–
1 h, oral, Harlan Sprague Dawley	2210	–
5 min, iv, F344	4540	–
5 min, iv, Harlan Sprague-Dawley	4940	–
5 min, oral, Harlan Sprague Dawley	45.8	–
6 h, iv, F344	4360	4280
6 h, oral, Harlan Sprague Dawley	3970	–
12 h, iv, F344	4300	3680
12 h, oral, Harlan Sprague Dawley	7550	–
24 h, iv, F344	4320	3470
24 h, iv, Harlan Sprague-Dawley	3660	–
24 h, oral, Harlan Sprague Dawley	4650	–
192 h, iv, F344	4590	–
192 h, iv, Harlan Sprague-Dawley	2490	–
192 h, oral, Harlan Sprague Dawley	3130	–
528 h, iv, F344	3280	1770
528 h, iv, Harlan Sprague-Dawley	2170	–
528 h, oral, Harlan Sprague Dawley	2690	–
864 h, iv, F344	1540	1300
864 h, oral, Harlan Sprague Dawley	1610	–
1200 h, iv, F344	2010	1650
1200 h, iv, Harlan Sprague-Dawley	650	–
1200 h, oral, Harlan Sprague Dawley	1100	–
1704 h, iv, F344	1840	573
1704 h, iv, Harlan Sprague-Dawley	868	–
1848 h, oral, Harlan Sprague Dawley	780	–
2376 h, iv, F344	750	395
2376 h, iv, Harlan Sprague-Dawley	698	–
2520 h, oral, Harlan Sprague Dawley	388	–
3216 h, iv, F344	90.3	–
3360 h, oral, Harlan Sprague Dawley	237	–

O=C(O)CCC(F)(F)C(F)(F)C(F)(F)C(F)(F)C(F)(F)C(F)(F)C(F)(F)F [Fluorotelomer acid 7+3]
Conditions	concentration in brain, Rat [2] [ng/g]	concentration in kidney, Rat [3] [ng/g]	concentration in liver, Rat [1] [ng/g]
0.5 h, dosed: Fluorotelomer alcohol 8+2, 24 mg/kg, Male, Harlan Sprague Dawley	109	224	300
0.5 h, dosed: Fluorotelomer alcohol 8+2, 24 mg/kg, Male, Harlan Sprague Dawley - this seems too small	47.2	129	195
0.5 h, dosed: Fluorotelomer alcohol 8+2, 80 mg/kg, Female, Harlan Sprague Dawley	139	418	1070
1 h, dosed: Fluorotelomer alcohol 8+2, 24 mg/kg, Male, Harlan Sprague Dawley	130	291	784
1 h, dosed: Fluorotelomer alcohol 8+2, 80 mg/kg, Female, Harlan Sprague Dawley	391	883	2270
3 h, dosed: Fluorotelomer alcohol 8+2, 24 mg/kg, Male, Harlan Sprague Dawley	425	1640	3250
3 h, dosed: Fluorotelomer alcohol 8+2, 80 mg/kg, Female, Harlan Sprague Dawley	870	3250	8230
6 h, dosed: Fluorotelomer alcohol 8+2, 24 mg/kg, Male, Harlan Sprague Dawley	365	1200	3160
6 h, dosed: Fluorotelomer alcohol 8+2, 80 mg/kg, Female, Harlan Sprague Dawley	1250	6470	8110
12 h, dosed: Fluorotelomer alcohol 8+2, 24 mg/kg, Male, Harlan Sprague Dawley	222	930	2590
12 h, dosed: Fluorotelomer alcohol 8+2, 80 mg/kg, Female, Harlan Sprague Dawley	632	3150	9470

Rat [4]
Conditions	concentration in plasma [ng/mL]
0.25 h, dosed: 678-39-7, 12 mg/kg, iv, Male, F344	45.5
0.25 h, dosed: 678-39-7, 40 mg/kg, iv, Male, F344	80.9
0.25 h, dosed: Fluorotelomer alcohol 8+2, 12 mg/kg, oral, Male, Harlan Sprague Dawley	21.6
0.5 h, dosed: 678-39-7, 12 mg/kg, iv, Male, F344	157
0.5 h, dosed: 678-39-7, 40 mg/kg, iv, Female, Harlan Sprague-Dawley	400
0.5 h, dosed: 678-39-7, 40 mg/kg, iv, Male, F344	640
0.5 h, dosed: Fluorotelomer alcohol 8+2, 12 mg/kg, oral, Male, Harlan Sprague Dawley	123
0.75 h, dosed: 678-39-7, 12 mg/kg, iv, Male, F344	242
0.75 h, dosed: 678-39-7, 40 mg/kg, iv, Female, Harlan Sprague-Dawley	773
0.75 h, dosed: Fluorotelomer alcohol 8+2, 12 mg/kg, oral, Male, Harlan Sprague Dawley	405
1 h, dosed: 678-39-7, 12 mg/kg, iv, Male, F344	455
1 h, dosed: 678-39-7, 40 mg/kg, iv, Female, Harlan Sprague-Dawley	1490
1 h, dosed: Fluorotelomer alcohol 8+2, 12 mg/kg, oral, Male, Harlan Sprague Dawley	317
3 h, dosed: 678-39-7, 12 mg/kg, iv, Male, F344	700
3 h, dosed: 678-39-7, 40 mg/kg, iv, Male, F344	2420
3 h, dosed: Fluorotelomer alcohol 8+2, 12 mg/kg, oral, Male, Harlan Sprague Dawley	794
5 min, dosed: 678-39-7, 12 mg/kg, iv, Male, F344	8.32
5 min, dosed: 678-39-7, 40 mg/kg, iv, Male, F344	21.4
6 h, dosed: 678-39-7, 12 mg/kg, iv, Male, F344	762
6 h, dosed: 678-39-7, 40 mg/kg, iv, Male, F344	1630
6 h, dosed: Fluorotelomer alcohol 8+2, 12 mg/kg, oral, Male, Harlan Sprague Dawley	619
9 h, dosed: 678-39-7, 12 mg/kg, iv, Male, F344	110
9 h, dosed: 678-39-7, 40 mg/kg, iv, Female, Harlan Sprague-Dawley	366
9 h, dosed: 678-39-7, 40 mg/kg, iv, Male, F344	481
9 h, dosed: Fluorotelomer alcohol 8+2, 12 mg/kg, oral, Male, Harlan Sprague Dawley	143
12 h, dosed: 678-39-7, 12 mg/kg, iv, Male, F344	63.3
12 h, dosed: 678-39-7, 40 mg/kg, iv, Female, Harlan Sprague-Dawley	130
12 h, dosed: Fluorotelomer alcohol 8+2, 12 mg/kg, oral, Male, Harlan Sprague Dawley	159
24 h, dosed: 678-39-7, 12 mg/kg, iv, Male, F344	98.6
24 h, dosed: 678-39-7, 40 mg/kg, iv, Female, Harlan Sprague-Dawley	498
24 h, dosed: Fluorotelomer alcohol 8+2, 12 mg/kg, oral, Male, Harlan Sprague Dawley	189
48 h, dosed: Fluorotelomer alcohol 8+2, 12 mg/kg, oral, Male, Harlan Sprague Dawley	112
192 h, dosed: 678-39-7, 12 mg/kg, iv, Male, F344	22.5
192 h, dosed: 678-39-7, 40 mg/kg, iv, Male, F344	134
192 h, dosed: Fluorotelomer alcohol 8+2, 12 mg/kg, oral, Male, Harlan Sprague Dawley	42.1
192 h, dosed: Fluorotelomer alcohol 8+2, 24 mg/kg, oral, Male, Harlan Sprague Dawley	53
